Results as given in US9788539B2, “Platelet protection solution having beta-galactosidase and sialidase inhibitors” (Velico Medical, Inc., priority 2011, dated 2017).
“Also recorded” adds a separate entry of the source.

Columns and labels:
mouse platelets [1] = test: Sialidase-induced β-galactose exposure on platelets, lectin binding by flow cytometry; assay type: cell-based; conditions: mouse platelets, 5 mU α2-3,6,8,9-sialidase
human platelets = test: Human platelets stored in plasma at RT, size and density by FSC/SSC; assay type: cell-based; conditions: 72 h at RT in plasma
[2] = test system: platelet GPIbα and GPV receptor surface expression; test: Recombinant TACE-mediated GPIbα and GPV shedding from platelets; assay type: cell-based, mouse; conditions: GPIbα and GPV; GM6001 100 μM on sialidase-treated platelets
mouse platelets [3] = test: Mouse platelets stored in 30% plasma and 70% INTERSOL solution at RT for 48 h, flow cytometry; assay type: cell-based
Method: The supernatant, containing platelet rich plasma, buffy coat, and some RBC, was removed and centrifuged at 300×g for 6 min to obtain platelet rich plasma (PRP). […] About 70% of the supernatant (105 μL) was removed from each tube, and replaced with equal volume of […]® solution. […] The volumes in tubes lacking one or both additives were evened out with PBS. The platelet suspensions were stored at RT for 48 h on a shaker and analyzed by flow cytometry.

mouse platelets [4] = test: Surface receptor loss of mouse platelets stored at room temperature; assay type: cell-based; conditions: DANA added during storage
mouse platelets [5] = test: Mouse platelets stored at RT for 48 h with different concentrations of DANA, counted by flow cytometry; assay type: cell-based; conditions: 0.1 mM DANA, 48 h at RT
Method: Mouse platelets were isolated as described in Example 3, re-suspended in platelet resuspension buffer and split to four aliquots. […] The samples were incubated for 30 min at 37° C., centrifuged and supernatants removed. The platelets re-suspended in plasma. DANA and glucose were restored to their initial concentrations. The platelet suspensions were stored at RT. After 48 h, platelets under each storage condition were counted by flow cytometry.

bacteria = test: Bacterial detection in stored platelet concentrate with SLP reagent, time of color detection (TOCD); assay type: cell-based; conditions: for time of color detection (TOCD): 1 mM DANA
Method: To increase the formation of planktonic bacteria, thereby improving the sensitivity of the bacterial detection, platelet storage studies were performed in a mixture of PAS (INTERSOL® solution) and plasma (80:20). Many bacterial detection methods are available. We used SLP Reagent Set (297-51501, Wako Chemicals USA), containing silkworm larvae plasma (SLP) and […] (DOPA), reconstituted according to manufacturer's instruction and stored as 100 μL aliquots at -80° C. When a sample is mixed with SLP reagent, peptidoglycan derived from the cell wall of Gram-positive and Gram-negative bacteria in the sample initiates a series of reactions including activation of multiple serine proteases called prophenoloxidase (proPO) cascade. The phenoloxidase (PO) produced in the cascade reactions oxidizes the substrate in the SLP reagent, […] (DOPA), to form melain (dark blue). The bacteria concentration in the test sample is inversely proportional to the onset time of color development: shorter time=higher concentration of bacteria; longer time=lower concentration of bacteria.
One bag of a platelet concentrate was split to two 50-mL Falcon tubes, PGE1 was added. After centrifugation at 900×g for 10 min, 80% of the supernatant (PPP) (relative to the total volume) was removed, and replaced with equal volume of platelet protection solution. The platelet was thoroughly re-suspended. The platelet suspensions were pooled and split to 4 aliquots in 15-mL Falcon tubes. DANA (1 mM) in PBS was added to two tubes while only PBS was added to the other tubes. One pair of samples with and without DANA was stored at 4° C. The second pair was kept at RT (22° C.-24° C.). Aliquots of 1.0 mL were removed on Day 0 and Day 9, and immediately pelleted (5 min, 15,800×g). […]
The pellet containing both platelets and bacteria, recovered from 1-mL aliquots sampled at different time points, was re-suspended in 100 μL of 0.1 M NaOH, and heated for 10 min at 70° C. […] The samples were left on the bench, and color development was monitored. The time of color detection (TOCD) was recorded.

**Q.** `CC(=O)NC1C(O)C=C(C(=O)O)OC1C(O)C(O)CO` (stereo not drawn) [DANA] was tested. Which “β-galactose exposure induced by sialidase in presence of inhibitor” value (mouse platelets [1]) did it give?
**A.** completely inhibited; also recorded: inhibits the exposure of β-galactose

**Q.** What about the “platelet shape by side and forward scatter” value (human platelets; 0.5 mM DANA) of the same compound?
**A.** visible improvement of the platelet shape

**Q.** And the “mean fluorescence intensity (MFI) of platelet count/SSC histogram” value (human platelets; with DANA vs without)?
**A.** increased

**Q.** What about the “receptor shedding by rTACE in presence of inhibitor” value [2] of the same compound?
**A.** completely prevented

**Q.** What about the “platelet events within the platelet gate” value (mouse platelets [3]; 48 h at RT, DANA 1 mM and/or glucose 10 mM (57% in INTERSOL alone)) of the same compound?
**A.** over 80%

**Q.** What about the “state of platelet population by forward and side scatter” value (mouse platelets [3]; compared with glucose alone) of the same compound?
**A.** more resting platelet population

**Q.** What about the “GPIbα and GPV receptor expression of room temperature stored mouse platelets” value (mouse platelets [4]) of the same compound?
**A.** preserved receptors expression; also recorded: inhibited

**Q.** What about the platelets recovered (mouse platelets [5]; 8 mM glucose, vs 0 mM DANA) of the same compound?
**A.** approximately 5 fold

**Q.** What about the “size and density of platelets by dot plot analysis” value (mouse platelets [5]) of the same compound?
**A.** efficiently preserved the size and density of platelets

**Q.** What about the “bacterial growth in RT stored platelet samples” value (bacteria; DANA, compared with 4° C. storage) of the same compound?
**A.** inhibits bacterial growth as effectively as 4° C.-storage

**Q.** And the “time of color detection (TOCD)” value (bacteria; Day 9, stored at 4° C.)?
**A.** ~50 min

**Q.** What about the “time of color detection (TOCD)” value (bacteria; Day 9, stored at RT, INTERSOL/plasma 80:20 (15 min without DANA)) of the same compound?
**A.** ~34 min
